Measurements taken from ChEMBL document CHEMBL5370525, “Antibiotics with novel mode of action as new weapons to fight antimicrobial resistance” (Eur J Med Chem, 2023).
In brackets after ≈: the same amount, converted by molar mass.

Columns and labels:
Staphylococcus aureus [1] = experiment: Antibacterial activity against Vancomycin-intermediate Staphylococcus aureus clinical isolate assessed as inhibition of bacterial growth by CLSI-based broth microdilution method; type: functional
Staphylococcus aureus [2] = experiment: Antibacterial activity against Meticillin-Resistant Staphylococcus aureus clinical isolate assessed as inhibition of bacterial growth by CLSI-based broth microdilution method; type: functional
[3] = Cytotoxicity against MDCK cells assessed as inhibition of cell growth by MTT assay; type: toxicity, cell-based, Canis lupus familiaris; conditions: dog
Staphylococcus aureus [4] = experiment: Antibacterial activity against Vancomycin-resistant Staphylococcus aureus clinical isolate assessed as inhibition of bacterial growth by CLSI-based broth microdilution method; type: functional
Staphylococcus aureus [5] = experiment: Antibacterial activity against Linezolid non-susceptible Staphylococcus aureus clinical isolate assessed as inhibition of bacterial growth by CLSI-based broth microdilution method; type: functional
HeLa = experiment: Cytotoxicity against human HeLa cells assessed as inhibition of cell growth by MTT assay; type: functional, cell-based
[6] = Oral bioavailability in BALB/c mouse at 32 mg/kg by LC/MS-MS analysis; type: ADME, organism-based; conditions: in vivo
[7] = Volume of distribution at steady state in BALB/c mouse at 24 mg/kg, iv by LC/MS-MS analysis; type: ADME, organism-based; conditions: in vivo, read-out: Vdss
Staphylococcus aureus [8] = experiment: Antibacterial activity against methicillin-resistant Staphylococcus aureus ATCC 33591 infected in mouse assessed as log reduction in bacterial CFU in thigh 120 mg/kg, po measured after 24 hrs; type: functional
Staphylococcus aureus [9] = experiment: Antibacterial activity against Daptomycin non-susceptible Staphylococcus aureus clinical isolate assessed as inhibition of bacterial growth by CLSI-based broth microdilution method; type: functional
[10] = Toxicity in Syrian hamster infected with clindamycin resistant Clostridium difficile ATCC 43596 assessed as survival rate at 0.5 mg/kg, po administered twice a day and measured after 33 days; type: organism-based, Mesocricetus auratus; conditions: in vivo, 792 h, time 33 day
[11] = Toxicity in Syrian hamster infected with clindamycin resistant Clostridium difficile ATCC 43596 assessed as animal survival at 5 mg/kg, po administered twice a day and measured after 25 days; type: organism-based, Mesocricetus auratus; conditions: in vivo, 600 h, time 25 day
[12] = Toxicity in Syrian hamster infected with clindamycin resistant Clostridium difficile ATCC 43596 assessed as survival rate at 5 mg/kg, po administered twice a day and measured after 33 days; type: organism-based, Mesocricetus auratus; conditions: in vivo, 792 h, time 33 day
[13] = Cmax in mouse at 0.6 mg/kg, po incubated for 24 hrs by LC-MS-MS analysis; type: ADME, organism-based; design: dose 0.6 mg/kg, time 24 hrs, route po; conditions: in vivo
[14] = Elimination half life in mouse at 0.3 to 1 mg/kg, po incubated for 24 hrs by LC-MS/MS analysis; type: ADME, organism-based; conditions: in vivo, dose 0.3-1 mg/kg, read-out: beta t1/2 (converted)
[15] = Plasma protein binding in Sprague-Dawley rat at 0.2 to 10 ug/ml by equilibrium dialysis; type: ADME, cell-free; conditions: at 0.2 to 10 µg/mL, dose 0.2-10 µg/ml, read-out: PPB
Staphylococcus aureus [16] = experiment: Antibacterial activity against Staphylococcus aureus smith infected CD-1 mouse assessed as survival rate at 1 mg/kg, po relative to control; type: functional
[17] = AUC (0 to t) in mouse at 0.3 mg/kg, po incubated for 24 hrs by LC-MS-MS analysis; type: ADME, organism-based; design: dose 0.3 mg/kg, time 24 hrs, route po; conditions: in vivo
[18] = Plasma protein binding in dog at 0.2 to 10 ug/ml by equilibrium dialysis; type: ADME, cell-free, Canis lupus familiaris; conditions: at 0.2 to 10 µg/mL, dose 0.2-10 µg/ml, read-out: PPB
Staphylococcus aureus [19] = experiment: Antibacterial activity against Staphylococcus aureus smith infected oral dosed CD-1 mouse; type: functional
[20] = Plasma protein binding in human at 0.2 to 10 ug/ml by equilibrium dialysis; type: ADME, cell-free; conditions: at 0.2 to 10 µg/mL, dose 0.2-10 µg/ml, read-out: PPB
[21] = AUC (0 to t) in mouse at 0.6 mg/kg, po incubated for 24 hrs by LC-MS-MS analysis; type: ADME, organism-based; design: dose 0.6 mg/kg, time 24 hrs, route po; conditions: in vivo
Staphylococcus aureus [22] = experiment: Antibacterial activity against Staphylococcus aureus clinical isolate assessed as bacterial growth inhibtion by CLSI-based broth microdilution method; type: functional
[23] = Cmax in mouse at 0.3 mg/kg, po incubated for 24 hrs by LC-MS-MS analysis; type: ADME, organism-based; design: dose 0.3 mg/kg, time 24 hrs, route po; conditions: in vivo
[24] = Plasma protein binding in mouse at 0.2 to 10 ug/ml by equilibrium dialysis; type: ADME, cell-free; conditions: at 0.2 to 10 µg/mL, dose 0.2-10 µg/ml, read-out: PPB
[25] = AUC (0 to t) in mouse at 1 mg/kg, po incubated for 24 hrs by LC-MS-MS analysis; type: ADME, organism-based; design: dose 1 mg/kg, time 24 hrs, route po; conditions: in vivo
Staphylococcus aureus [26] = experiment: Post antibiotic effect against methicillin sensitive Staphylococcus aureus 29213 at 32 times of MIC incubated for 4 hrs by; type: functional
[27] = Cmax in mouse at 1 mg/kg, po incubated for 24 hrs by LC-MS-MS analysis; type: ADME, organism-based; design: time 24 hrs, dose 1 mg/kg, route po; conditions: in vivo
Staphylococcus aureus [28] = experiment: Post antibiotic effect against methicillin sensitive Staphylococcus aureus 29213 at 128 times of MIC incubated for 4 hrs by; type: functional
Enterococcus faecium = experiment: Antibacterial activity against Vancomycin-resistant Enterococcus faecium clinical isolates assessed as inhibition of bacterial growth incubated for 44 hrs by CLSI-based broth microdilution assay; type: functional
Acinetobacter baumannii = experiment: Antibacterial activity against Acinetobacter baumannii clinical isolates assessed as inhibition of bacterial growth incubated for 44 hrs by CLSI-based broth microdilution assay; type: functional
Bifidobacterium sp. = experiment: Antibacterial activity against Bifidobacterium sp. clinical isolates assessed as inhibition of bacterial growth incubated for 48 hrs by CLSI-based Serial 2-fold dilution; type: functional
Klebsiella pneumoniae = experiment: Antibacterial activity against Klebsiella pneumoniae clinical isolates assessed as inhibition of bacterial growth incubated for 44 hrs by CLSI-based broth microdilution assay; type: functional
Escherichia coli = experiment: Antibacterial activity against Escherichia coli clinical isolates assessed as inhibition of bacterial growth incubated for 44 hrs by CLSI-based broth microdilution assay; type: functional
[29] = Binding affinity to N-terminal His-tagged Full-length Haemophilus influenzae MetRS2 expressed in Escherichia coli assessed as inhibition constant by tRNA aminoacylation/ATP:PPi assay
[30] = Binding affinity to N-terminal His-tagged Full-length Streptococcus pneumoniae MetRS1 expressed in Escherichia coli assessed as inhibition constant by tRNA aminoacylation/ATP:PPi assay
[31] = Oral bioavailability in Sprague-Dawley rat; type: ADME, organism-based; conditions: in vivo
[32] = Oral bioavailability in hamster; type: ADME, organism-based, Mesocricetus auratus; conditions: in vivo
[33] = Binding affinity to N-terminal His-tagged Full-length human cytoplasmic MetRS2 expressed in Escherichia coli assessed as inhibition constant by tRNA aminoacylation/ATP:PPi assay; type: subcellular, Cytoplasm
[34] = Binding affinity to N-terminal His-tagged Full-length human mitochondrial MetRS1 expressed in Escherichia coli assessed as inhibition constant by tRNA aminoacylation/ATP:PPi assay; type: mitochondria, Mitochondria
[35] = Binding affinity to N-terminal His-tagged Full-length Staphylococcus aureus MetRS1 expressed in Escherichia coli assessed as inhibition constant by tRNA aminoacylation/ATP:PPi assay
Actinomyces sp. = experiment: Antibacterial activity against Actinomyces sp. clinical isolates assessed as inhibition of bacterial growth incubated for 48 hrs by CLSI-based Serial 2-fold dilution; type: functional
Staphylococcus aureus [36] = experiment: Antibacterial activity against Meticillin-resistant Staphylococcus aureus clinical isolates assessed as inhibition of bacterial growth incubated for 44 hrs by CLSI-based broth microdilution assay; type: functional
[37] = Binding affinity to N-terminal His-tagged Full-length Clostridium difficile MetRS1 expressed in Escherichia coli assessed as inhibition constant by tRNA aminoacylation/ATP:PPi assay; design: species or system Clostridioides difficile
Lactobacillus sp. = experiment: Antibacterial activity against Lactobacillus sp. clinical isolates assessed as inhibition of bacterial growth incubated for 48 hrs by CLSI-based Serial 2-fold dilution; type: functional
[38] = Oral bioavailability in Beagle dog; type: ADME, organism-based, Canis lupus familiaris; conditions: in vivo
[39] = Binding affinity to N-terminal His-tagged Full-length Escherichia coli MetRS2 expressed in Escherichia coli assessed as inhibition constant by tRNA aminoacylation/ATP:PPi assay
Clostridioides difficile [40] = experiment: Antibacterial activity against Clostridium difficile clinical isolates assessed as inhibition of bacterial growth incubated for 44 hrs by CLSI-based broth microdilution assay; type: functional
Pseudomonas aeruginosa = experiment: Antibacterial activity against Pseudomonas aeruginosa clinical isolates assessed as inhibition of bacterial growth incubated for 44 hrs by CLSI-based broth microdilution assay; type: functional
Clostridioides difficile [41] = experiment: Antibacterial activity against Clostridium difficile clinical isolates assessed as inhibition of bacterial growth; type: functional

For `CN1CCC(C(=O)NC(=O)c2c(F)ccc(OCc3nc4cc(C(F)(F)F)cnc4s3)c2F)CC1`, which MIC (Staphylococcus aureus [1]) is on record?
Its MIC is 1 µg/mL (≈ 1.94 µM).

And the MIC (Staphylococcus aureus [2])?
Its MIC is 1 µg/mL (≈ 1.94 µM).

What about the IC50 [3] of the same compound?
The IC50 was greater than 120 µg/mL.

And the MIC (Staphylococcus aureus [4])?
Its MIC is 1 µg/mL (≈ 1.94 µM).

What about the MIC (Staphylococcus aureus [5]) of the same compound?
Its MIC is 1 µg/mL (≈ 1.94 µM).

And the IC50 (HeLa)?
The IC50 was greater than 120 µg/mL.

What about the bioavailability [6] of the same compound?
The bioavailability was 1%.

What about the Vd [7] of the same compound?
The Vd was 2.02 L/kg.

And the “log(activity)” value (Staphylococcus aureus [8])?
The value was 2.

And the MIC (Staphylococcus aureus [9])?
Its MIC is 1 µg/mL (≈ 1.94 µM).

Which results are given for `Cl.Cl.O=c1cc(NCCCN[C@@H]2CCOc3c(Br)cc(Br)cc32)[nH]c2ccsc12`?
Survival [10]: 62%; Activity [11]: Toxic; Survival [12]: 75%

With `Cc1c(CN(C)C(=O)/C=C/c2cnc3c(c2)CCC(=O)N3COP(=O)(O)O)oc2ccccc12` [AFABICIN] as the compound, how does the Cmax [13] read?
Its Cmax is 196 ng/mL.

What about the half-life [14] of the same compound?
The half-life was 5 h.

What about the fraction unbound [15] of the same compound?
The fraction unbound was less than 0.05.

And the survival at 1 mg/kg (Staphylococcus aureus [16])?
Its survival at 1 mg/kg is 100%.

And the AUC(0-t) at 24 h [17]?
Its AUC(0-t) at 24 h is 367 ng·h/mL.

And the fraction unbound [18]?
Its fraction unbound is less than 0.05.

And the ED50 (Staphylococcus aureus [19])?
Its ED50 is 0.15 mg/kg.

And the fraction unbound [20]?
The fraction unbound was less than 0.05.

What about the AUC(0-t) at 24 h [21] of the same compound?
Its AUC(0-t) at 24 h is 196 ng·h/mL.

And the MIC90 (Staphylococcus aureus [22])?
The MIC90 was less than 0.015 µg/mL.

And the Cmax [23]?
Its Cmax is 154 ng/mL.

What about the fraction unbound [24] of the same compound?
The fraction unbound was less than 0.05.

And the AUC(0-t) at 24 h [25]?
The AUC(0-t) at 24 h was 1030 ng·h/mL.

And the PAE (Staphylococcus aureus [26])?
The PAE was 0.1 h.

And the Cmax [27]?
The Cmax was 304 ng/mL.

And the PAE (Staphylococcus aureus [28])?
The PAE was 1.1 h.

With `O=c1cc(NCCCN[C@@H]2CCOc3c(Br)cc(Br)cc32)[nH]c2ccsc12` [CRS-3123] as the compound, how does the MIC (Enterococcus faecium) read?
Its MIC is less than 0.004 µg/mL.

What about the MIC (Acinetobacter baumannii) of the same compound?
Its MIC is greater than 32 µg/mL.

What about the MIC (Bifidobacterium sp.) of the same compound?
Its MIC is greater than 32 µg/mL.

And the MIC (Klebsiella pneumoniae)?
The MIC was greater than 32 µg/mL.

And the MIC (Escherichia coli)?
Its MIC is greater than 32 µg/mL.

What about the Ki [29] of the same compound?
The Ki was 178 nM.

And the Ki [30]?
Its Ki is 0.08 nM.

And the bioavailability [31]?
Its bioavailability is less than 1%.

What about the bioavailability [32] of the same compound?
The bioavailability was 0.6%.

What about the Ki [33] of the same compound?
Its Ki is greater than 20000 nM.

What about the Ki [34] of the same compound?
The Ki was 28 nM.

And the Ki [35]?
The Ki was 0.017 nM.

What about the MIC (Actinomyces sp.) of the same compound?
Its MIC is greater than 32 µg/mL.

And the MIC (Staphylococcus aureus [36])?
Its MIC is 0.015 µg/mL (≈ 0.0292 µM).

What about the Ki [37] of the same compound?
Its Ki is 0.02 nM.

What about the MIC (Lactobacillus sp.) of the same compound?
The MIC was greater than 32 µg/mL.

What about the bioavailability [38] of the same compound?
Its bioavailability is less than 1%.

And the Ki [39]?
The Ki was 1900 nM.

What about the MIC (Clostridioides difficile [40]) of the same compound?
Its MIC is 0.5 µg/mL (≈ 0.974 µM).

And the MIC (Pseudomonas aeruginosa)?
Its MIC is greater than 32 µg/mL.

Which MIC (Clostridioides difficile [41]) does the source give for `CCc1c(Cl)c(O)c(Cl)c(O)c1C(=O)O[C@H]1[C@H](O)[C@H](OC)[C@H](OC/C2=C\C=C\C[C@H](O)/C(C)=C/[C@H](CC)[C@@H](O[C@@H]3OC(C)(C)[C@@H](OC(=O)C(C)C)[C@H](O)[C@@H]3O)/C(C)=C/C(C)=C/C[C@@H]([C@@H](C)O)OC2=O)O[C@@H]1C` [FIDAXOMICIN] here?
The MIC was 0.15 µg/mL (≈ 0.142 µM).
